Experimental data published in patent publication US5719132A, “Compositions and methods of treating HIV with d4T, 5-fluorouracil/tegafur, and uracil” (priority 1996, dated 1998).
Like-named read-outs stand apart in the source and are kept apart here.

Columns and labels:
[1] = test system: clinical HIV-1 isolate JEW; experiment: anti-HIV activity (p24 production) in PHA-stimulated PBMC, clinical isolate JEW; assay type: cell-based; settings: for EC50: Human immunodeficiency virus 1, PBMC, mean of three experiments; for Fold Enhancement (d4T anti-HIV activity): Table 1; for Fold Enhancement (ddI anti-HIV activity): Table 2
Excerpt: .cndot."a" refers to the EC50 data as representing the mean values from three experiments, with duplicate determinations in each experiment.
Virus--A clinical HIV-1 isolate, JEW, was titrated with a infectivity assay [Johnson, V. A. and R. E. Byington. 1990. Infectivity assay, p. 71-76. in A. Aldovini and B. D. Walker (ed.), Techniques in HIV Research. Stockton Press, New York], and used in our experiments.
Chemicals--d4T was supplied by Bristol-Myers Squibb Company. 5-Fluorouracil(5-FU) was purchased from Sigma.
1. PBMC were infected by the clinical isolate JEW at a multiplicity of infection (MOI) of 0.001 at 37° C. for one hour, and then resuspended in RPMI 1640 medium (Gibco, Gaithersburg, Md.) containing 20% fetal bovine serum (FBS, Sigma), 1 ng/ml IL-2 and 2 mM L-glutamine (Gibco) at a concentration of 4×10^6 cells/ml.
2. d4T (2 μM) or ddI (40 μM) was serially diluted 1:3 into RPMI 1640 medium with a final volume of 100 μl/well in 96-well plates, and 50 μl of 2.0 μM, 0.8 μM and 0 μM 5-FU were then added to each well.
3. 50 μl of 4×10^6 / ml infected PBMC were added to each well in these plates to get a final 1×10^6 cells/ml, and incubated at 37° C.
4. Half media (100 μl) from each well were removed and replaced with fresh medium containing same concentrations of drug at day 3 or 4.
5. Samples were collected at day 7 and the p24 levels were quantitated using a HIV p24 ELISA kit (Dupont, Boston, Mass.).

[2] = test system: thymidylate synthetase (TS); settings: cited from earlier work
[3] = in vivo; cited from earlier work
[4] = in vitro; settings: human, pha-stimulated pbmc
Procedure: (§1) Cells--Peripheral blood mononuclear cells (PBMC) from normal individuals were prepared by Ficoll-Hypaque gradient centrifugation of venous blood with citrate as an anticoagulant and stimulated with phytoagglutinin (PHA--P, 4 μg/ml, Sigma Chemical, St. Louis, Mo.) and interleukin-2 (IL-2, 1 ng/ml, Upstate Biotechnology Inc., Lake Placid, N.Y.) for three days.
(§2) To determine the cytotoxicity of 5-FU, uninfected PBMC were incubated with a series of concentrations of 5-FU (i.e., 0.04, 0.16, 0.63, 2.5 and 10 μM). To determine whether 5-FU can affect the cytotoxicity of d4T, uninfected PBMC were incubated with a series of concentrations of d4T (i.e., 0.8, 3.1, 12.5, 50 and 200 μM) containing 0.02 μM of 5-FU. This was repeated with d4T using 5-FU concentrations of 0.1 μM and 0.5 μM, respectively. Cell viability was monitored by trypan blue exclusion assay. Results were expressed as a percentage of living cells in drug testing wells compared to those in untreated control wells. The 50% cytotoxic concentration (CC50) was calculated as the concentration of drugs that decreased the percentage of living cells in drug-treated wells to 50% of those in untreated wells.

[5] = test system: PHA-PBMC; experiment: cytotoxicity in PBMC by trypan blue exclusion
Procedure: as §1, §2

[6] = test system: human immunodeficiency virus (HIV); settings: cited from earlier work
[7] = test system: clinical HIV isolate OLR; experiment: anti-HIV activity in PBMC, clinical isolate OLR; assay type: cell-based; settings: with 0.1 μM 5-FU
Procedure: The 50% cytotoxicity concentration of 5-FU in PHA--PBMC is approximately 9 μM (i.e. micromolar) as determined by trypan blue staining.

[8] = test system: HIV-1 reverse transcriptase; settings: in vitro; cited from earlier work
[9] = clinical studies; cited from earlier work
[10] = test system: HIV; settings: cited from earlier work
[11] = cited from earlier work
[12] = test system: HIV; settings: 20 patients treated for up to 24 months; cited from earlier work
[13] = test system: HIV; settings: lowering of endogenous dATP; cited from earlier work
[14] = test system: degradation of 5-fluorouracil; settings: in vitro; cited from earlier work

SMILES: O=c1[nH]cc(F)c(=O)[nH]1 [5-FU, 5-fluorouracil]
- potentiating effect on the anti-HIV activity of ddI ([1]; up to 0.5 μM 5-FU, PBMC): no potentiating effect
- antiviral activity alone ([1]; up to 0.5 μM, PHA-PBMC acutely infected by isolate JEW): no antiviral activity
- TS inhibition [2]: effective TS inhibitor
- half-life [3]: very short half-life
- CC50 [4]: ~9000 nM
- toxicity to PBMC ([5]; up to 0.5 μM): non-toxic
- potentiating effect on d4T cytotoxicity ([5]; up to 0.5 μM 5-FU, PBMC): no potentiating effect

SMILES: Nc1ccn([C@H]2C=C[C@@H](CO)O2)c(=O)n1 [d4C, 2',3'-dideoxycytidin-2'-ene]
- antiviral activity against HIV [6]: demonstrated antiviral activity

SMILES: Cc1cn([C@H]2C=C[C@@H](CO)O2)c(=O)[nH]c1=O [d4T, 2',3'-didehydro-3'-deoxythymidine]
- EC50 ([1]; read-out: EC50 of d4T, PHA-stimulated PBMC, isolate JEW, 5-FU 0 μM): 98 ± 42 nM
- EC50 ([1]; read-out: EC50 of d4T, PHA-stimulated PBMC, isolate JEW, with 5-FU 0.2 μM): 92 ± 39 nM
- EC50 ([1]; read-out: EC50 of d4T, PHA-stimulated PBMC, isolate JEW, with 5-FU 0.5 μM): 27 ± 15 nM
- fold enhancement of the anti-HIV activity of d4T ([1]; with 0.5 μM 5-FU, isolate JEW): ≤ 4 fold
- Fold Enhancement (d4T anti-HIV activity) ([1]; with 5-FU 0.2 μM): 1 X
- Fold Enhancement (d4T anti-HIV activity) ([1]; with 5-FU 0.5 μM): 4 X
- fold enhancement of d4T activity [7]: 4.5 fold
- inhibition of HIV-1 reverse transcriptase [8]: potent inhibitor
- oral bioavailability [9]: greater than 80%
- time until CD4 counts and serum p24 levels return to baseline ([10]; duration of anti-viral responses in patients): approximately 6 months
- CD4 counts ([10]; treated patients): increases in CD4 counts
- serum p24 levels and infectious HIV titers in PBMC ([10]; treated patients): decreases in both serum p24 levels and infectious HIV titers
- antiviral activity against HIV [6]: demonstrated antiviral activity
- dose-limiting toxicity ([11]; clinical studies): peripheral neuropathy
- undesirable side effects ([11]; human, in vivo): peripheral neuropathy
- resistant viruses isolated [12]: no resistant viruses can be isolated

SMILES: Nc1ncnc2c1ncn2[C@H]1CC[C@@H](CO)O1 [ddA, 2',3'-dideoxyadenosine]
- antiviral activity against HIV [6]: demonstrated antiviral activity

SMILES: Nc1ccn([C@H]2CC[C@@H](CO)O2)c(=O)n1 [ddC, 2',3'-dideoxycytidine]
- antiviral activity against HIV [6]: demonstrated antiviral activity

SMILES: OC[C@@H]1CC[C@H](n2cnc3c(O)ncnc32)O1 [ddI, 2',3'-dideoxyinosine]
- EC50 ([1]; PHA-stimulated PBMC, isolate JEW, 5-FU 0 μM, read-out: EC50 of ddI): 100 ± 32 nM
- EC50 ([1]; PHA-stimulated PBMC, isolate JEW, with 5-FU 0.2 μM, read-out: EC50 of ddI): 170 ± 2 nM
- Fold Enhancement (ddI anti-HIV activity) ([1]; with 5-FU 0.2 μM): 0.6 X
- Fold Enhancement (ddI anti-HIV activity) ([1]; with 5-FU 0.5 μM): 0.7 X
- antiviral activity against HIV [6]: demonstrated antiviral activity

SMILES: NC(=O)NO [hydroxyurea]
- effect of hydroxyurea on anti-HIV activity of ddI [13]: enhanced anti-HIV activity of ddI

SMILES: O=c1cc[nH]c(=O)[nH]1 [uracil]
- inhibition of degradation of 5-fluorouracil [14]: strongly inhibits the degradation of 5-fluorouracil
